Assay results taken from US20230141603A1, “BENZODIAZEPINE DERIVATIVES AS GABA A GAMMA1 PAM” (Hoffmann-La Roche Inc., priority 2021, published 2023).

Assays:
[1] = target: T1, h-GABAA α1β3γ2 (Homo sapiens, UniProt P14867+P18507); experiment: Radioligand binding assay, [3H]Flumazenil competition, HEK293F membranes; details: for γ2/γ1 Selectivity Ratio / LogSel: Table 1; for γ2/γ1 Selectivity Ratio: Ki α1β3γ2 (nM)/Ki α2β2γ1 (nM); for LogSel: Log[Ki α1β3γ2 (nM)/Ki α2β2γ1 (nM)]
T1 construct: expressed in transfected cells; host or cells: HEK293F cells, membranes
Method in brief: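 [3H]Flumazenil competition binding on membranes from HEK293F cells transiently expressing human α1β3γ2 receptors. Incubation to equilibrium for 1 h at 4 °C, then filtration and scintillation counting. Ki is the mean of two determinations.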

[2] = target: T2, h-GABAA α2β2γ1 (Homo sapiens, UniProt P47869+Q8N1C3); experiment: Two-electrode voltage clamp electrophysiology in Xenopus oocytes, modulation of GABA EC20 current; format: cell-based; design: host or cells: Xenopus laevis oocytes, RNA micro-injection; details: Table 2; for Efficacy (GABA)%: % modulation of GABA EC20 = 100*(Fold increase−1), compound at approx. 30-fold Ki; for Fold increase h-GABA-A α2β2γ1 oocyte @ 30-fold Ki: compound at approx. 30-fold its Ki α2β2γ1, GABA EC20, Xenopus oocytes
T2 sequence (P47869 29-451): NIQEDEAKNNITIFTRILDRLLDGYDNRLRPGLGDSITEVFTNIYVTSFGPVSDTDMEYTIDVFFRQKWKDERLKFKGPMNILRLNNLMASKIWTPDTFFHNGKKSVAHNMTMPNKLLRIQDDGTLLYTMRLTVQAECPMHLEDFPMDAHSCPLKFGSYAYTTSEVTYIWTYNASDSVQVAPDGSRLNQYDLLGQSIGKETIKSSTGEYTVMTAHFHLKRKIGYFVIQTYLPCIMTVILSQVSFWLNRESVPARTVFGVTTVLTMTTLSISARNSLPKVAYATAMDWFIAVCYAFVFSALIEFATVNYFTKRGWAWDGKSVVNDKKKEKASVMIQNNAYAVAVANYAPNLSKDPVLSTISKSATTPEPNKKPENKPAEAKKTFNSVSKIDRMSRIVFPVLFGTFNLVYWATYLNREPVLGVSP
T2 sequence (P47870 25-512 partner limits assumed): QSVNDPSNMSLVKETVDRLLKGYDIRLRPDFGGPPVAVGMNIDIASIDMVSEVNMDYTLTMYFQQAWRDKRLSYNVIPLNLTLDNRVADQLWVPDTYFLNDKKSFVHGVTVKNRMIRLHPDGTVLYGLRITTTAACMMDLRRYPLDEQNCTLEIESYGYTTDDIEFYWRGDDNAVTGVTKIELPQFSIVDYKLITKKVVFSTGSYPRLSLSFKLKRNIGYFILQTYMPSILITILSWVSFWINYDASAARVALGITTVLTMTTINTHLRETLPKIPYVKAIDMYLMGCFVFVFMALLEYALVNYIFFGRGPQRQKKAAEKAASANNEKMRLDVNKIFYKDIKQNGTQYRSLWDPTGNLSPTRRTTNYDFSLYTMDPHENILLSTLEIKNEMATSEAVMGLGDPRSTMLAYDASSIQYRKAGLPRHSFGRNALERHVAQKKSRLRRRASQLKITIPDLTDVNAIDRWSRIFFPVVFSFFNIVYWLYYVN
T2 sequence (Q8N1C3 36-465): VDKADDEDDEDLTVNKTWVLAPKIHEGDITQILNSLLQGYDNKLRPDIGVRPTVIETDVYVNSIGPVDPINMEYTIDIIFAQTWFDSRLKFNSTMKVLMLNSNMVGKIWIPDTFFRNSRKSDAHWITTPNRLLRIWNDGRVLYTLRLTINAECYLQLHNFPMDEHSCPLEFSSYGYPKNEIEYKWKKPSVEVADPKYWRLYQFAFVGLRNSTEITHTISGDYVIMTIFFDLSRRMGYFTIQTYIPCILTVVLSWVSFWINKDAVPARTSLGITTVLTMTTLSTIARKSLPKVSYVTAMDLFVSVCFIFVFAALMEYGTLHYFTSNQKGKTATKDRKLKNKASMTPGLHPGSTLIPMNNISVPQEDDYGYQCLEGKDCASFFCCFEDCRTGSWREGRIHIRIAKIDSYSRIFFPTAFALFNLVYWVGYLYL
Method in brief: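 Oocytes injected with receptor subunit mRNA were recorded 3–5 days later by two-electrode voltage clamp at −80 mV, room temperature, pH 7.4. Compound was applied during a second GABA EC20 pulse, with at least 3 oocytes per concentration. Efficacy is the ratio-trace extremum, expressed as % modulation of GABA EC20.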

| SMILES | Ki [1] | γ2/γ1 Selectivity Ratio [1] | LogSel [1] | Efficacy (GABA)% [2] | Fold increase h-GABA-A α2β2γ1 oocyte @ 30-fold Ki [2] |
| --- | --- | --- | --- | --- | --- |
| Cc1nnc2n1-c1ccc(Br)c(Cl)c1C(c1ncccc1F)=NC2 [Example 24, 8-bromo-7-chloro-6-(3-fluoro-2-pyridyl)-1-methyl-4H-[1,2,4]triazolo[4,3-a][1,4]benzodiazepine] | 608 nM | 25.0 | 1.40 | 85% | 1.85 |
| Cc1nnc2n1-c1ccc(C(F)F)c(Cl)c1C(c1c(F)cccc1F)=NC2 [Example 25, 7-chloro-8-(difluoromethyl)-6-(2,6-difluorophenyl)-1-methyl-4H-[1,2,4]triazolo[4,3-a][1,4]benzodiazepine] | 1190 nM | 24.2 | 1.38 | 84% | 1.84 |
| O=c1[nH]nc2n1-c1ccc(Br)c(Cl)c1C(c1ccccc1F)=NC2 [Example 26, 8-bromo-7-chloro-6-(2-fluorophenyl)-2,4-dihydro-[1,2,4]triazolo[4,3-a][1,4]benzodiazepin-1-one] | 698 nM | 22.1 | 1.34 | 45% | 1.45 |
| Fc1ccccc1C1=NCc2nnc(-c3cccnn3)n2-c2ccc(C(F)(F)F)c(Cl)c21 [Example 27, 7-chloro-6-(2-fluorophenyl)-1-pyridazin-3-yl-8-(trifluoromethyl)-4H-[1,2,4]triazolo[4,3-a][1,4]benzodiazepine] | 4800 nM | 56.7 | 1.75 | 71% | 1.71 |
| Cn1cc(-c2nnc3n2-c2ccc(Cl)c(Cl)c2C(c2c(F)cccc2F)=NC3)cn1 [Example 28, 7,8-dichloro-6-(2,6-difluorophenyl)-1-(1-methylpyrazol-4-yl)-4H-[1,2,4]triazolo[4,3-a][1,4]benzodiazepine] | 293 nM | 31.1 | 1.49 | 59% | 1.59 |
| Fc1cccnc1C1=NCc2nncn2-c2ccc(Br)c(Cl)c21 [Example 29, 8-bromo-7-chloro-6-(3-fluoro-2-pyridyl)-4H-[1,2,4]triazolo[4,3-a][1,4]benzodiazepine] | 789 nM | 16.6 | 1.22 | 105% | 2.05 |
| OCc1nnc2n1-c1ccc(Br)c(Cl)c1C(c1c(F)cccc1F)=NC2 [Example 33, [8-bromo-7-chloro-6-(2,6-difluorophenyl)-4H-[1,2,4]triazolo[4,3-a][1,4]benzodiazepin-1-yl]methanol] | 232 nM | 18.2 | 1.26 | 80% | 1.80 |
| Fc1cccc(F)c1C1=NCc2nncn2-c2ccc(I)c(Cl)c21 [Example 34, 7-chloro-6-(2,6-difluorophenyl)-8-iodo-4H-[1,2,4]triazolo[4,3-a][1,4]benzodiazepine] | 161 nM | 15.9 | 1.20 | 81% | 1.81 |
